Laboratory results as given in patent US20110305632A1, “PROCESS FOR THE PREPARATION OF ASYMMETRICAL BIS(THIOSEMICARBAZONES)” (THE UNIVERSITY OF MELBOURNE, priority 2008, published 2011).

Experiment: Cyclic voltammetry of Cu(II) bis(thiosemicarbazonato) complexes (half-wave potentials and peak separations)
Type: physicochemical
Conditions: DMF
Method: Voltametric experiments were performed with an Autolab (Eco Chemie, Utrecht, Netherlands) computer-controlled electrochemical workstation.
Recent studies have shown that in vivo stability of bifunctional chelators of copper is not only dependent on the thermodynamic stability and kinetic inertness of the complex but also the susceptibility to reduction of Cu(II) to Cu(I). Intracellular reductants with thiols, such as cysteine-rich metallothioneins, may act as effective reductants of Cu(II) and scavengers of the labile Cu(I) ions.

[1] = cyclic voltammogram, scan rate 0.1 V s^−1, glassy carbon electrode
[2] = cyclic voltammogram, scan rate 0.1 V s^−1, potentials relative to SCE, glassy carbon electrode

Compound: CN=C([S-])N/N=C(C)/C(C)=N/NC([S-])=NC.[Cu+2] [Cu^II(atsm)]
- reversibility of the Cu(II)/Cu(I) reduction (cyclic voltammetry, glassy carbon electrode): quasi-reversible
- Cu^II/Cu^I Epa − Epc (anodic to cathodic peak separation) [1]: 102 mV
- Cu^III/Cu^II Epa − Epc (anodic to cathodic peak separation) [1]: 94 mV
- Cu^II/Cu^I E1/2 [2]: -0.63 V
- Cu^III/Cu^II E1/2 [2]: 0.75 V
- E1/2 of Cu(II)/Cu(I) reduction (vs. SCE (Fc/Fc+ 0.54 V), glassy carbon working electrode): −0.63 V
